Reference: the supplement of paper PMC10307832

Tests used:
Experiment in all cases: relative viability (nuclei count vs DMSO), 5 days (fraction); higher = more cells survive
201T = system: 201T
Summary of the method: (§1)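 Lung cancer cell lines were pin-tool dosed in 1536-well plates on the day after seeding, with either a lone drug or a fixed anchor-drug dose plus five library-drug doses (not always all listed) in √10 steps. Nuclei were counted on 4× images after 5 days. Relative viability is the ratio of treated-well to vehicle-well nuclei counts, with each value a median of duplicate plates.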

BEN = system: BEN
Summary of the method: as §1

COR-L 105 = system: COR-L 105
Summary of the method: as §1

EKVX = system: EKVX
Summary of the method: as §1

EPLC-272H = system: EPLC-272H
Summary of the method: as §1

H3255 = system: H3255
Summary of the method: as §1

HCC-44 = system: HCC-44
Summary of the method: as §1

HCC-827 = system: HCC-827
Summary of the method: as §1

LCLC-97TM1 = system: LCLC-97TM1
Summary of the method: as §1

LOU-NH91 = system: LOU-NH91
Summary of the method: as §1

LU99A = system: LU99A
Summary of the method: as §1

NCI-H1437 = system: NCI-H1437
Summary of the method: as §1

NCI-H1666 = system: NCI-H1666
Summary of the method: as §1

NCI-H1975 = system: NCI-H1975
Summary of the method: as §1

NCI-H2085 = system: NCI-H2085
Summary of the method: as §1

NCI-H2087 = system: NCI-H2087
Summary of the method: as §1

NCI-H2170 = system: NCI-H2170
Summary of the method: as §1

NCI-H647 = system: NCI-H647
Summary of the method: as §1

PC-3 [JPC-3] = system: PC-3 [JPC-3]
Summary of the method: as §1

SW 1573 = system: SW 1573
Summary of the method: as §1

NCI-H650 = system: NCI-H650
Summary of the method: as §1

COc1nc(C)cnc1NS(=O)(=O)c1cccnc1-c1ccc(-c2nnco2)cc1 [Zibotentan] + CC1(C)CCC(c2ccc(Cl)cc2)=C(CN2CCN(c3ccc(C(=O)NS(=O)(=O)c4ccc(N[C@H](CCN5CCOCC5)CSc5ccccc5)c(S(=O)(=O)C(F)(F)F)c4)cc3)CC2)C1 [Navitoclax] (partner 0.5 µM)
relative viability (201T; first compound 0.08 µM): 1.23 | relative viability (201T; first compound 0.253 µM): 1.21 | relative viability (201T; first compound 0.8 µM): 1.23 | relative viability (201T; first compound 2.53 µM): 1.21 | relative viability (BEN; first compound 0.08 µM): 0.0813 | relative viability (BEN; first compound 0.253 µM): 0.0646 | relative viability (BEN; first compound 0.8 µM): 0.059 | relative viability (BEN; first compound 2.53 µM): 0.0664 | relative viability (COR-L 105; first compound 0.08 µM): 0.696 | relative viability (COR-L 105; first compound 0.253 µM): 0.649 | relative viability (COR-L 105; first compound 0.8 µM): 0.993 | relative viability (COR-L 105; first compound 2.53 µM): 0.84 | relative viability (EKVX; first compound 0.08 µM): 0.938 | relative viability (EKVX; first compound 0.253 µM): 1 | relative viability (EKVX; first compound 0.8 µM): 0.943 | relative viability (EKVX; first compound 2.53 µM): 1.06 | relative viability (EPLC-272H; first compound 0.08 µM): 1.09 | relative viability (EPLC-272H; first compound 0.253 µM): 1.1 | relative viability (EPLC-272H; first compound 0.8 µM): 1.16 | relative viability (EPLC-272H; first compound 2.53 µM): 1.4 | relative viability (H3255; first compound 0.08 µM): 0.458 | relative viability (H3255; first compound 0.253 µM): 0.603 | relative viability (H3255; first compound 0.8 µM): 0.609 | relative viability (H3255; first compound 2.53 µM): 0.458 | relative viability (HCC-44; first compound 0.08 µM): 1.24 | relative viability (HCC-44; first compound 0.253 µM): 0.887 | relative viability (HCC-44; first compound 0.8 µM): 0.99 | relative viability (HCC-44; first compound 2.53 µM): 1.04 | relative viability (HCC-827; first compound 0.08 µM): 1.01 | relative viability (HCC-827; first compound 0.253 µM): 1 | relative viability (HCC-827; first compound 0.8 µM): 1.02 | relative viability (HCC-827; first compound 2.53 µM): 1.02 | relative viability (LCLC-97TM1; first compound 0.08 µM): 0.365 | relative viability (LCLC-97TM1; first compound 0.253 µM): 0.402 | relative viability (LCLC-97TM1; first compound 0.8 µM): 0.403 | relative viability (LCLC-97TM1; first compound 2.53 µM): 0.447 | relative viability (LOU-NH91; first compound 0.08 µM): 0.693 | relative viability (LOU-NH91; first compound 0.253 µM): 0.635 | relative viability (LOU-NH91; first compound 0.8 µM): 0.812 | relative viability (LOU-NH91; first compound 2.53 µM): 0.66 | relative viability (LU99A; first compound 0.08 µM): 0.753 | relative viability (LU99A; first compound 0.253 µM): 0.768 | relative viability (LU99A; first compound 0.8 µM): 0.791 | relative viability (LU99A; first compound 2.53 µM): 0.869 | relative viability (NCI-H1437; first compound 0.08 µM): 1.12 | relative viability (NCI-H1437; first compound 0.253 µM): 1.04 | relative viability (NCI-H1437; first compound 0.8 µM): 1.07 | relative viability (NCI-H1437; first compound 2.53 µM): 1.17 | relative viability (NCI-H1666; first compound 0.08 µM): 0.878 | relative viability (NCI-H1666; first compound 0.253 µM): 0.785 | relative viability (NCI-H1666; first compound 0.8 µM): 0.767 | relative viability (NCI-H1666; first compound 2.53 µM): 1.01 | relative viability (NCI-H1975; first compound 0.08 µM): 1.13 | relative viability (NCI-H1975; first compound 0.253 µM): 1.05 | relative viability (NCI-H1975; first compound 0.8 µM): 1.05 | relative viability (NCI-H1975; first compound 2.53 µM): 1.02 | relative viability (NCI-H2085; first compound 0.08 µM): 1.23 | relative viability (NCI-H2085; first compound 0.253 µM): 1.08 | relative viability (NCI-H2085; first compound 0.8 µM): 1.28 | relative viability (NCI-H2085; first compound 2.53 µM): 1.27 | relative viability (NCI-H2087; first compound 0.08 µM): 1.03 | relative viability (NCI-H2087; first compound 0.253 µM): 1.15 | relative viability (NCI-H2087; first compound 0.8 µM): 0.983 | relative viability (NCI-H2087; first compound 2.53 µM): 1.05 | relative viability (NCI-H2170; first compound 0.08 µM): 0.699 | relative viability (NCI-H2170; first compound 0.253 µM): 0.6 | relative viability (NCI-H2170; first compound 0.8 µM): 0.651 | relative viability (NCI-H2170; first compound 2.53 µM): 0.651 | relative viability (NCI-H647; first compound 0.08 µM): 1.34 | relative viability (NCI-H647; first compound 0.253 µM): 0.875 | relative viability (NCI-H647; first compound 0.8 µM): 1 | relative viability (NCI-H647; first compound 2.53 µM): 1.17 | relative viability (PC-3 [JPC-3]; first compound 0.08 µM): 0.771 | relative viability (PC-3 [JPC-3]; first compound 0.253 µM): 0.726 | relative viability (PC-3 [JPC-3]; first compound 0.8 µM): 0.795 | relative viability (PC-3 [JPC-3]; first compound 2.53 µM): 0.728 | relative viability (SW 1573; first compound 0.08 µM): 0.993 | relative viability (SW 1573; first compound 0.253 µM): 0.914 | relative viability (SW 1573; first compound 0.8 µM): 1.01 | relative viability (SW 1573; first compound 2.53 µM): 1.04

COc1nc(C)cnc1NS(=O)(=O)c1cccnc1-c1ccc(-c2nnco2)cc1 [Zibotentan] + CC(C)C[C@H](NC(=O)[C@H](Cc1ccccc1)NC(=O)c1cnccn1)B(O)O [Bortezomib] (partner 0.002 µM)
relative viability (201T; first compound 0.08 µM): 1.1 | relative viability (201T; first compound 0.253 µM): 1.05 | relative viability (201T; first compound 0.8 µM): 1.11 | relative viability (201T; first compound 2.53 µM): 1.11 | relative viability (BEN; first compound 0.08 µM): 0.912 | relative viability (BEN; first compound 0.253 µM): 0.824 | relative viability (BEN; first compound 0.8 µM): 0.792 | relative viability (BEN; first compound 2.53 µM): 0.593 | relative viability (COR-L 105; first compound 0.08 µM): 0.819 | relative viability (COR-L 105; first compound 0.253 µM): 0.694 | relative viability (COR-L 105; first compound 0.8 µM): 0.859 | relative viability (COR-L 105; first compound 2.53 µM): 0.994 | relative viability (EKVX; first compound 0.08 µM): 1.13 | relative viability (EKVX; first compound 0.253 µM): 1.17 | relative viability (EKVX; first compound 0.8 µM): 1.11 | relative viability (EKVX; first compound 2.53 µM): 1.07 | relative viability (EPLC-272H; first compound 0.08 µM): 1.04 | relative viability (EPLC-272H; first compound 0.253 µM): 0.906 | relative viability (EPLC-272H; first compound 0.8 µM): 0.843 | relative viability (EPLC-272H; first compound 2.53 µM): 0.862 | relative viability (H3255; first compound 0.08 µM): 0.791 | relative viability (H3255; first compound 0.253 µM): 0.963 | relative viability (H3255; first compound 0.8 µM): 0.996 | relative viability (H3255; first compound 2.53 µM): 0.822 | relative viability (HCC-44; first compound 0.08 µM): 0.909 | relative viability (HCC-44; first compound 0.253 µM): 0.894 | relative viability (HCC-44; first compound 0.8 µM): 0.959 | relative viability (HCC-44; first compound 2.53 µM): 0.883 | relative viability (HCC-827; first compound 0.08 µM): 1.08 | relative viability (HCC-827; first compound 0.253 µM): 0.994 | relative viability (HCC-827; first compound 0.8 µM): 1.05 | relative viability (HCC-827; first compound 2.53 µM): 1.04 | relative viability (LCLC-97TM1; first compound 0.08 µM): 0.631 | relative viability (LCLC-97TM1; first compound 0.8 µM): 0.657 | relative viability (LCLC-97TM1; first compound 2.53 µM): 0.688 | relative viability (LOU-NH91; first compound 0.08 µM): 0.469 | relative viability (LOU-NH91; first compound 0.253 µM): 0.443 | relative viability (LOU-NH91; first compound 0.8 µM): 0.538 | relative viability (LOU-NH91; first compound 2.53 µM): 0.815 | relative viability (LU99A; first compound 0.08 µM): 1.3 | relative viability (LU99A; first compound 0.253 µM): 1.13 | relative viability (LU99A; first compound 0.8 µM): 1.23 | relative viability (LU99A; first compound 2.53 µM): 1.17 | relative viability (NCI-H1437; first compound 0.08 µM): 0.486 | relative viability (NCI-H1437; first compound 0.253 µM): 0.504 | relative viability (NCI-H1437; first compound 0.8 µM): 0.454 | relative viability (NCI-H1437; first compound 2.53 µM): 0.53 | relative viability (NCI-H1666; first compound 0.08 µM): 0.76 | relative viability (NCI-H1666; first compound 0.253 µM): 0.599 | relative viability (NCI-H1666; first compound 0.8 µM): 0.8 | relative viability (NCI-H1666; first compound 2.53 µM): 1 | relative viability (NCI-H1975; first compound 0.08 µM): 0.378 | relative viability (NCI-H1975; first compound 0.253 µM): 0.293 | relative viability (NCI-H1975; first compound 0.8 µM): 0.411 | relative viability (NCI-H1975; first compound 2.53 µM): 0.419 | relative viability (NCI-H2085; first compound 0.08 µM): 1.06 | relative viability (NCI-H2085; first compound 0.253 µM): 0.941 | relative viability (NCI-H2085; first compound 0.8 µM): 1.07 | relative viability (NCI-H2085; first compound 2.53 µM): 1.14 | relative viability (NCI-H2087; first compound 0.08 µM): 0.939 | relative viability (NCI-H2087; first compound 0.253 µM): 0.801 | relative viability (NCI-H2087; first compound 0.8 µM): 0.736 | relative viability (NCI-H2087; first compound 2.53 µM): 0.873 | relative viability (NCI-H647; first compound 0.08 µM): 0.859 | relative viability (NCI-H647; first compound 0.253 µM): 0.818 | relative viability (NCI-H647; first compound 0.8 µM): 0.891 | relative viability (NCI-H647; first compound 2.53 µM): 1.11 | relative viability (NCI-H650; first compound 0.08 µM): 0.769 | relative viability (NCI-H650; first compound 0.253 µM): 0.742 | relative viability (NCI-H650; first compound 0.8 µM): 0.726 | relative viability (NCI-H650; first compound 2.53 µM): 0.696 | relative viability (PC-3 [JPC-3]; first compound 0.08 µM): 0.906 | relative viability (PC-3 [JPC-3]; first compound 0.253 µM): 0.838 | relative viability (PC-3 [JPC-3]; first compound 0.8 µM): 0.839 | relative viability (PC-3 [JPC-3]; first compound 2.53 µM): 0.807 | relative viability (SW 1573; first compound 0.08 µM): 1 | relative viability (SW 1573; first compound 0.253 µM): 0.847 | relative viability (SW 1573; first compound 0.8 µM): 1.05 | relative viability (SW 1573; first compound 2.53 µM): 1.28
